Source: ChEMBL document CHEMBL5042538 (J Med Chem, 2022)
pIC50, pKi: −log10 of the molar value.

Legend:
[1] = Time dependent inhibition of human CYP3A in human liver microsomes using midazolam as substrate preincubated for 30 mins in presence of NADPH-generating system followed by substrate addition incubated for 10 mins by LC-MS/MS analysis; assay type: ADME
[2] = Inactivation of CYP3A in human liver microsomes at 0.25 uM using midazolam as substrate in presence of NADPH generating system and catalase; assay type: ADME
[3] = biological target: T1, CYP3A4 (Homo sapiens, UniProt P08684); test: (§1) Ratio of IC50 for time dependent inhibition of recombinant human CYP3A4 incubated for 30 mins by LC-MS/MS analysis to IC50 for time dependent inhibition of recombinant human CYP3A4 using midazolam as substrate preincubated for 30 mins in presence of NADPH-generating system followed by substrate addition further incubated for 30 mins by LC-MS/MS analysis; conditions: recombinant human CYP3A4, probe midazolam, read-out: Ratio IC50
[4] = system: CYP3A; test: as §1, with “CYP3A in” for “recombinant”, “liver microsomes” for “CYP3A4”; conditions: probe midazolam, read-out: Ratio IC50
[5] = biological target: T2, Cytochrome P450 3A4 (Homo sapiens, UniProt P08684); test: Inactivation of recombinant human CYP3A4 assessed as partition ratio in presence of NADPH-generating system; assay type: ADME; conditions: recombinant enzyme
[6] = biological target: T3, Cytochrome P450 3A5 (Homo sapiens, UniProt P20815); test: Time dependent inhibition of recombinant human CYP3A5 using midazolam as substrate preincubated for 30 mins in presence of NADPH generating system followed by substrate addition incubated for 30 mins by LC-MS/MS analysis; assay type: ADME
[7] = Time dependent inhibition of CYP3A in human liver microsomes incubated for 30 mins in presence of NADPH generating system by LC-MS/MS analysis; assay type: ADME
[8] = Time dependent inhibition of CYP3A in human liver microsomes using midazolam as substrate preincubated for 30 mins in presence of NADPH generating system followed by substrate addition incubated for 30 mins by LC-MS/MS analysi; assay type: ADME
[9] = biological target: T2, Cytochrome P450 3A4; test: Time dependent inhibition of recombinant human CYP3A4 incubated for 30 mins in presence of NADPH generating system by LC-MS/MS analysis; assay type: ADME
[10] = biological target: T3, Cytochrome P450 3A5; test: Time dependent inhibition of recombinant human CYP3A5 incubated for 30 mins in presence of NADPH generating system by LC-MS/MS analysis; assay type: ADME
[11] = biological target: T4, Cytochrome P450 3A7 (Homo sapiens, UniProt P24462); test: Time dependent inhibition of recombinant human CYP3A7 incubated for 30 mins in presence of NADPH generating system by LC-MS/MS analysis; assay type: ADME
[12] = biological target: T2, Cytochrome P450 3A4; test: Time dependent inhibition of recombinant human CYP3A4 using midazolam as substrate preincubated for 30 mins in presence of NADPH generating system followed by substrate addition incubated for 30 mins by LC-MS/MS analysi; assay type: ADME
[13] = biological target: T4, Cytochrome P450 3A7; test: Time dependent inhibition of recombinant human CYP3A7 using midazolam as substrate preincubated for 30 mins in presence of NADPH generating system followed by substrate addition incubated for 30 mins by LC-MS/MS analysi; assay type: ADME
[14] = Inactivation of CYP3A in human liver microsomes at 0.25 uM using midazolam as substrate in presence of NADPH generating system and mannitol; assay type: ADME
[15] = biological target: CYP3A5 (Homo sapiens, UniProt P20815); test: as §1, with “CYP3A5” for “CYP3A4”; conditions: recombinant human CYP3A5, probe midazolam, read-out: Ratio IC50
[16] = Inactivation of CYP3A in human liver microsomes at 0.25 uM using midazolam as substrate in presence of NADPH generating system and super oxide dismutase; assay type: ADME
[17] = Inactivation of CYP3A in human liver microsomes at 0.25 uM using midazolam as substrate in presence of NADPH generating system and ferric cyanide; assay type: ADME
[18] = biological target: CYP3A7 (Homo sapiens, UniProt P24462); test: as §1, with “CYP3A7” for “CYP3A4”; conditions: recombinant human CYP3A7, probe midazolam, read-out: Ratio IC50
[19] = system: CYP3A; test: Inactivation of CYP3A in human liver microsomes using midazolam as substrate assessed as enzyme remaining activity in presence of glutathione; assay type: ADME; conditions: probe midazolam, read-out: INH
[20] = Inhibition of CYP3A in human liver microsomes at 2.5 uM using Nifedipine as substrate at 10 to 20 fold excess concentration preincubated for 5 mins followed by beta-NADP addition and measured upto 12 mins; assay type: ADME; conditions: 0.2 h, time <=17 min
[21] = Inhibition of CYP3A in human liver microsomes at 2.5 uM using de-oxyschizandrin as substrate at 10 to 20 fold excess concentration preincubated for 5 mins followed by beta-NADP addition and measured upto 12 mins; assay type: ADME; conditions: 0.2 h, time <=17 min
[22] = biological target: T1, CYP3A4; test: Time dependent inhibition of CYP3A4 in human liver microsomes assessed as enzyme remaining activity at 2.5 uM using midazolam as substrate preincubated for 30 mins in presence of NADPH-generating system relative to control; assay type: ADME; conditions: probe midazolam, read-out: TDI
[23] = biological target: T1, CYP3A4; test: Time dependent inhibition of recombinant human CYP3A4 assessed as enzyme remaining activity at 2.5 uM using midazolam as substrate preincubated for 30 mins in presence of NADPH-generating system relative to control; assay type: ADME; conditions: recombinant human CYP3A4, probe midazolam, read-out: TDI
[24] = system: CYP3A4; test: Time dependent inhibition of CYP3A4 in human liver microsomes assessed as enzyme remaining activity at 2.5 uM using midazolam as substrate incubated for 30 mins relative to control; assay type: ADME; conditions: probe midazolam, read-out: TDI
[25] = biological target: T1, CYP3A4; test: Time dependent inhibition of recombinant human CYP3A4 assessed as enzyme remaining activity at 2.5 uM using midazolam as substrate incubated for 30 mins relative to control; assay type: ADME; conditions: recombinant human CYP3A4, probe midazolam, read-out: TDI
[26] = biological target: T2, Cytochrome P450 3A4; test: Inactivation of CYP3A4 in human liver microsomes assessed as inhibition constant using midazolam as substrate preincubated for 5 mins followed by beta-NADP addition for 15 mins and midazolam addition after 10 mins in presence of NADPH-generating system by LC-MS/MS analysis; assay type: ADME
[27] = biological target: T2, Cytochrome P450 3A4; test: Inactivation of recombinant human CYP3A4 assessed as inhibition constant using midazolam as substrate preincubated for 5 mins followed by beta-NADP addition for 15 mins and midazolam addition after 10 mins in presence of NADPH-generating system by LC-MS/MS analysis; assay type: ADME
[28] = biological target: T1, CYP3A4; test: Inactivation of CYP3A4 in human liver microsomes assessed as inactivation constant using midazolam as substrate preincubated for 5 mins followed by beta-NADP addition for 15 mins and midazolam addition after 10 mins in presence of NADPH-generating system by LC-MS/MS analysis; assay type: ADME; conditions: probe midazolam, time 30 min
[29] = biological target: T1, CYP3A4; test: Inactivation of recombinant human CYP3A4 assessed as inactivation constant using midazolam as substrate preincubated for 5 mins followed by beta-NADP addition for 15 mins and midazolam addition after 10 mins in presence of NADPH-generating system by LC-MS/MS analysis; assay type: ADME; conditions: recombinant human CYP3A4, probe midazolam, time 30 min
[30] = biological target: T1, CYP3A4; test: Inactivation of recombinant human CYP3A4 at 0.1 uM for 10 mins relative to control; assay type: ADME
[31] = biological target: T2, Cytochrome P450 3A4; test: Drug metabolism assessed as human CYP3A4-mediated M1 metabolite formation at 7.32 mins in presence of NADPH generating system by LC-MS/MS analysis; assay type: ADME; conditions: recombinant enzyme, 0.122 h
[32] = biological target: T2, Cytochrome P450 3A4; test: Drug metabolism assessed as human CYP3A4-mediated M2 metabolite formation at 7.80 mins in presence of NADPH generating system by LC-MS/MS analysis; assay type: ADME; conditions: recombinant enzyme, 0.13 h, time 7.8 min
[33] = Drug metabolism assessed as human CYP2D6-mediated M1 metabolite formation at 7.32 mins in presence of NADPH generating system by LC-MS/MS analysis; assay type: ADME; conditions: recombinant enzyme, 0.122 h
[34] = Drug metabolism assessed as human CYP2D6-mediated M2 metabolite formation at 7.80 mins in presence of NADPH generating system by LC-MS/MS analysis; assay type: ADME; conditions: recombinant enzyme, 0.13 h, time 7.8 min
[35] = system: CYP3A; test: Inhibition of CYP3A in human liver microsomes at 1 uM using midazolam as substrate incubated for 10 mins relative to control; assay type: ADME; conditions: probe midazolam
[36] = system: CYP3A; test: Time dependent inhibition of CYP3A in human liver microsomes assessed as enzyme remaining activity at 10 uM using N-ethyl-1,8-naphthalimide as substrate preincubated for 30 mins in presence of NADPH generating system followed by substrate addition and incubated for 10 mins by microplate reader analysis relative to control; assay type: ADME; conditions: probe N-ethyl-1,8-naphthalimide, time 40 min, read-out: TDI
[37] = system: CYP3A; test: Inhibition of CYP3A in human liver microsomes at 10 uM using midazolam as substrate incubated for 10 mins relative to control; assay type: ADME; conditions: probe midazolam

T2 sequence (P08684 whole entry): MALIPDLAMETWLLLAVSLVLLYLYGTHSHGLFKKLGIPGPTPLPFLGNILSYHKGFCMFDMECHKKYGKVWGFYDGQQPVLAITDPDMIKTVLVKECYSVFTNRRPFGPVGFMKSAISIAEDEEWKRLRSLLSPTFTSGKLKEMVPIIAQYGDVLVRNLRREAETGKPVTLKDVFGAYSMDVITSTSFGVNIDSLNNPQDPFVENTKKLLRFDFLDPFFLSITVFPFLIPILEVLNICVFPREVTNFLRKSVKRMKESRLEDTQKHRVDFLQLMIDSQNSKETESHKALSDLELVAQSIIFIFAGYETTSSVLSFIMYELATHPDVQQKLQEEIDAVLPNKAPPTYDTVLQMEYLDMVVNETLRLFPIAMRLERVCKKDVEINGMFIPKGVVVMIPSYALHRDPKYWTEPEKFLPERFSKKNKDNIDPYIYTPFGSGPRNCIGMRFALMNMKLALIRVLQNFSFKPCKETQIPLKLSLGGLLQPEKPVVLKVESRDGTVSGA
T1 sequence (P08684 whole entry): as above
T4 sequence (P24462 whole entry): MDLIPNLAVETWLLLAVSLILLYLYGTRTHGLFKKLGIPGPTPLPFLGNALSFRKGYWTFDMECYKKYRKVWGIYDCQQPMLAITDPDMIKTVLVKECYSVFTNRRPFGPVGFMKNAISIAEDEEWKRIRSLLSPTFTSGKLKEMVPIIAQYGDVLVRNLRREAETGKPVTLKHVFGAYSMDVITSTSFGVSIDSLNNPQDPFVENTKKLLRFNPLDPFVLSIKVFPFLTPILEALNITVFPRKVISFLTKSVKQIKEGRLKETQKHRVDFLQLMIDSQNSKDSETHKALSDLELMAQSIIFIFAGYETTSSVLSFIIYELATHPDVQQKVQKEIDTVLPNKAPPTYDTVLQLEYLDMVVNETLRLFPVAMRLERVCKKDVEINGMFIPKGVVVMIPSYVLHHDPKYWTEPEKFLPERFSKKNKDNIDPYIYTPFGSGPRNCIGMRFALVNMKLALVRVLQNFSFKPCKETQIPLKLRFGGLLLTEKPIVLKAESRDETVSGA
T3 sequence (P20815 whole entry): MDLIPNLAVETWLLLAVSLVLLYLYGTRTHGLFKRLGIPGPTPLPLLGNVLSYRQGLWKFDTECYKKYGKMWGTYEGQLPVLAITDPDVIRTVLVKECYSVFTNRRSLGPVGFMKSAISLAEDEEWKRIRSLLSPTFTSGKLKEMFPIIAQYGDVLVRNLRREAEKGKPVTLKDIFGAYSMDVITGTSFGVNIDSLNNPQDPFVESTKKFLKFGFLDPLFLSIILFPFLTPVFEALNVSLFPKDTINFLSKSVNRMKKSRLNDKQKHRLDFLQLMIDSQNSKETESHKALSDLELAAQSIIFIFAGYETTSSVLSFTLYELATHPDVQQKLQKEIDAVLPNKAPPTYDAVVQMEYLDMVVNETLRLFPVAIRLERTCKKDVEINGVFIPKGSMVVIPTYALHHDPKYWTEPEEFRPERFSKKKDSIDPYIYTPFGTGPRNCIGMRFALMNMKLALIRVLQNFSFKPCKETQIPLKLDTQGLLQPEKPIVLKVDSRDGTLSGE
CYP3A7, sequence (P24462 whole entry): as the sequence (P24462 whole entry) above
CYP3A5, sequence (P20815 whole entry): as the sequence (P20815 whole entry) above

C[C@]12CCC(=O)C[C@H]1CC[C@@H]1[C@@H]2CC[C@]2(C)[C@@H](c3ccc(=O)oc3)CC[C@]12O
pIC50 [1]: 7.52 | inhibition (INH) [2]: Active | IC50 shift at 0.5 h [3]: 17.3 | IC50 shift at 0.5 h [4]: 12.3 | Ratio [5]: 0.75 | pIC50 [6]: 5.63 | pIC50 [7]: 6.43 | pIC50 [8]: 6.35 | pIC50 [9]: 5.81 | pIC50 [10]: 5.26 | pIC50 [11]: 4.96 | pIC50 [12]: 7.05 | pIC50 [13]: 4.19 | inhibition (INH) [14]: Active | IC50 shift at 0.5 h [15]: 5.87 | inhibition (INH) [16]: Active | inhibition (INH) [17]: Active | IC50 shift at 0.5 h [18]: 17.5 | activity [19]: 43.8% | inhibition (INH) [20]: Not Active | inhibition (INH) [21]: Not Active | activity at 30 min, 2.5 µM [22]: 19.7% | activity at 30 min, 2.5 µM [23]: 11.9% | activity at 0.5 h, 2.5 µM [24]: 72.5% | activity at 0.5 h, 2.5 µM [25]: 81.2% | pKi [26]: 6.18 | pKi [27]: 6.60 | kinact [28]: 0.00107 s⁻¹ | kinact [29]: 0.00268 s⁻¹ | inhibition at 10 min, 0.1 µM [30]: 50% | Drug metabolism [31]: Metabolite_Detected | Drug metabolism [32]: Metabolite_Detected | Drug metabolism [33]: Metabolite_Detected | Drug metabolism [34]: Metabolite_Detected | inhibition at 10 min, 1 µM [35]: 49%

CC(=O)O[C@H]1[C@H]2O[C@]23[C@@H]2CC[C@@H]4CC(=O)CC[C@]4(C)[C@H]2CC[C@]3(C)[C@H]1c1ccc(=O)oc1
IC50 shift at 0.5 h [4]: 24.8 | pIC50 [7]: 4.87 | pIC50 [8]: 6.27

C[C@]12CCC(=O)C[C@H]1CC[C@@H]1[C@@H]2CC[C@]2(C)[C@@H](c3ccc(=O)oc3)C[C@H]3O[C@]132
IC50 shift at 0.5 h [4]: 11.4 | pIC50 [7]: 5.23 | pIC50 [8]: 6.28

C[C@]12CC[C@H](O)C[C@H]1CC[C@@H]1[C@@H]2CC[C@]2(C)[C@@H](c3ccc(=O)oc3)CC[C@]12O [BUFALIN]
activity at 10 min, 10 µM [36]: 6.81% | pIC50 [7]: 4.94 | pIC50 [8]: 6.13 | inhibition at 10 min, 10 µM [37]: 53%
